Tests used:
[1] = test system: Escherichia coli ATCC 25922; assay: Minimum inhibitory concentration (MIC), CLSI broth micro-dilution, E. coli; format: cell-based; conditions: Escherichia coli, ATCC25922, 22 h, Table 6, cation adjusted Mueller Hinton Broth + 0.002% Tween-80, 35° C.
Summary of the method: (§1)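 Colonies grown 20 h at 35° C on Trypticase Soy agar (MRSA) or Luria agar (E. coli) were suspended in cation-adjusted Mueller Hinton broth with 0.002% Tween-80. Suspensions were added at OD600 0.0005 to 10-point twofold compound dilutions, then incubated 22 h at 35° C.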

[2] = test system: Methicillin Resistant Staphylococcus aureus strain USA 200; assay: Minimum inhibitory concentration (MIC), CLSI broth micro-dilution, S. aureus; format: cell-based; conditions: Staphylococcus aureus, MRSA / USA200; Table 6; MRSA USA 200; cation adjusted Mueller Hinton Broth + 0.002% Tween-80; 35° C., 22 hours
Summary of the method: as §1

SMILES	MIC [1]	MIC [2]
Cc1nc(-c2ccc(OC3CCCCC3)cc2)nc(C)c1C(=O)N[C@H](CO)C(=O)N(C)[C@@H]1C(=O)N[C@@H](C)C(=O)N[C@H](C(=O)NCC#N)Cc2ccc(OCCN)c(c2)-c2cc1ccc2OCCN [Compound 508, (8S,11S,14S)-3,18-bis(2-aminoethoxy)-N-(cyanomethyl)-14-[[(2R)-2-[[2-[4-(cyclohexoxy)phenyl]-4,6-dimethyl-pyrimidine-5-carbonyl]amino]-3-hydroxy-propanoyl]-methyl-amino]-11-methyl-10,13-dioxo-9,12-diazatricyclo[13.3.1.12,6]icosa-1(18),2(20),3,5,15(19),16-hexaene-8-carboxamide]	6 µM	1 µM
CCCCCOc1ccc(-c2nc(C)c(C(=O)N[C@@H](CCN)C(=O)N(C)[C@@H]3C(=O)N[C@@H](C)C(=O)N[C@H](C(=O)NCC#N)Cc4ccc(OCCCN)c(c4)-c4cc3ccc4OCCCN)c(C)n2)cc1 (racemic) [Compound 435, rac-(8S,11S,14S)-3,18-bis(3-aminopropoxy)-N-(cyanomethyl)-11-methyl-14-[methyl-[rac-(2S)-4-amino-2-[[4,6-dimethyl-2-(4-pentoxyphenyl)pyrimidine-5-carbonyl]amino]butanoyl]amino]-10,13-dioxo-9,12-diazatricyclo[13.3.1.12,6]icosa-1(18),2(20),3,5,15(19),16-hexaene-8-carboxamide]	0.094 µM	0.012 µM
Cc1nc2cc(-c3ccc(C(C)(C)C)cc3)ccn2c1C(=O)N[C@@H](CCN)C(=O)N(C)[C@@H]1C(=O)N[C@@H](C)C(=O)N[C@H](C(=O)NCC#N)Cc2ccc(OCCN)c(c2)-c2cc1ccc2OCCN (racemic) [Compound 393, rac-(8S,11S,14S)-3,18-bis(2-aminoethoxy)-N-(cyanomethyl)-11-methyl-14-[methyl-[rac-(2S)-4-amino-2-[[7-(4-tert-butylphenyl)-2-methyl-imidazo[1,2-a]pyridine-3-carbonyl]amino]butanoyl]amino]-10,13-dioxo-9,12-diazatricyclo[13.3.1.12,6]icosa-1(18),2(20),3,5,15(19),16-hexaene-8-carboxamide]	8.2 µM	0.021 µM
CCCc1ccc(-c2ncc(C(=O)N[C@@H](CCN)C(=O)N(C)[C@@H]3C(=O)N[C@@H](C)C(=O)N[C@H](C(=O)NCC#N)Cc4ccc(OCCN)c(c4)-c4cc3ccc4OCCN)c(C)n2)c(C)c1 (racemic) [Compound 222, rac-(8S,11S,14S)-3,18-bis(2-aminoethoxy)-N-(cyanomethyl)-11-methyl-14-[methyl-[rac-(2S)-4-amino-2-[[4-methyl-2-(2-methyl-4-propyl-phenyl)pyrimidine-5-carbonyl]amino]butanoyl]amino]-10,13-dioxo-9,12-diazatricyclo[13.3.1.12,6]icosa-1(18),2(20),3,5,15(19),16-hexaene-8-carboxamide]	0.53 µM	0.033 µM
Cc1nc(-c2ccc(C(C)(C)C)cc2)nc(C)c1C(=O)N[C@@H](CC(C)(C)N)C(=O)N(C)[C@@H]1C(=O)N[C@@H](C)C(=O)N[C@H](C(=O)NCC#N)Cc2ccc(OCCN)c(c2)-c2cc1ccc2OCCN [Compound 492, (8S,11S,14S)-14-[[(2S)-4-amino-2-[[2-(4-tert-butylphenyl)-4,6-dimethyl-pyrimidine-5-carbonyl]amino]-4-methyl-pentanoyl]-methyl-amino]-3,18-bis(2-aminoethoxy)-N-(cyanomethyl)-11-methyl-10,13-dioxo-9,12-diazatricyclo[13.3.1.12,6]icosa-1(18),2(20),3,5,15(19),16-hexaene-8-carboxamide]	2 µM	0.016 µM
Cc1nc(-c2ccc(C(C)(C)C)cc2)c(N(C)C)cc1C(=O)N[C@@H](CCN)C(=O)N(C)[C@@H]1C(=O)N[C@@H](C)C(=O)N[C@H](C(=O)NCC#N)Cc2ccc(OCCN)c(c2)-c2cc1ccc2OCCN (racemic) [Compound 408, rac-(8S,11S,14S)-3,18-bis(2-aminoethoxy)-N-(cyanomethyl)-11-methyl-14-[methyl-[rac-(2S)-4-amino-2-[[6-(4-tert-butylphenyl)-5-(dimethylamino)-2-methyl-pyridine-3-carbonyl]amino]butanoyl]amino]-10,13-dioxo-9,12-diazatricyclo[13.3.1.12,6]icosa-1(18),2(20),3,5,15(19),16-hexaene-8-carboxamide]	0.38 µM	0.023 µM
Cc1nc(-c2ccc(CC(C)C)cc2)ncc1C(=O)N[C@@H](CCO)C(=O)N(C)[C@@H]1C(=O)N[C@@H](C)C(=O)N[C@H](C(=O)NCC#N)Cc2ccc(OCCN)c(c2)-c2cc1ccc2OCCN (racemic) [Compound 458, rac-(8S,11S,14S)-3,18-bis(2-aminoethoxy)-N-(cyanomethyl)-11-methyl-14-[methyl-[rac-(2S)-4-hydroxy-2-[[2-(4-isobutylphenyl)-4-methyl-pyrimidine-5-carbonyl]amino]butanoyl]amino]-10,13-dioxo-9,12-diazatricyclo[13.3.1.12,6]icosa-1(18),2(20),3,5,15(19),16-hexaene-8-carboxamide]	1.1 µM	0.033 µM
CCCCCCc1ncc(-c2ccc(C(=O)N[C@@H](CCN)C(=O)N(C)[C@@H]3C(=O)N[C@@H](C)C(=O)N[C@H](C(=O)NCC#N)Cc4ccc(OCCN)c(c4)-c4cc3ccc4OCCN)c(C)c2)cn1 (racemic) [Compound 204, rac-(8S,11S,14S)-3,18-bis(2-aminoethoxy)-N-(cyanomethyl)-11-methyl-14-[methyl-[rac-(2S)-4-amino-2-[[4-(2-hexylpyrimidin-5-yl)-2-methyl-benzoyl]amino]butanoyl]amino]-10,13-dioxo-9,12-diazatricyclo[13.3.1.12,6]icosa-1(18),2(20),3,5,15(19),16-hexaene-8-carboxamide]	2.1 µM	0.032 µM
Cc1nc(N2CC(C(C)(C)C)C2)nc(C)c1C(=O)N[C@@H](CCN)C(=O)N(C)[C@@H]1C(=O)N[C@@H](C)C(=O)N[C@H](C(=O)NCC#N)Cc2ccc(OCCN)c(c2)-c2cc1ccc2OCCN (racemic) [Compound 316, rac-(8S,11S,14S)-3,18-bis(2-aminoethoxy)-N-(cyanomethyl)-11-methyl-14-[methyl-[rac-(2S)-4-amino-2-[[2-(3-tert-butylazetidin-1-yl)-4,6-dimethyl-pyrimidine-5-carbonyl]amino]butanoyl]amino]-10,13-dioxo-9,12-diazatricyclo[13.3.1.12,6]icosa-1(18),2(20),3,5,15(19),16-hexaene-8-carboxamide]	1.5 µM	0.38 µM
Cc1cc(-c2ccc(C(C)(C)C)cc2)cc(C)c1C(=O)N[C@@H](CCN)C(=O)N(C)[C@@H]1C(=O)N[C@@H](C)C(=O)N[C@H](C(=O)NCC#N)Cc2ccc(OCCN)c(c2)-c2cc1ccc2OCCN (racemic) [Compound 370, rac-(8S,11S,14S)-3,18-bis(2-aminoethoxy)-N-(cyanomethyl)-11-methyl-14-[methyl-[rac-(2S)-4-amino-2-[[4-(4-tert-butylphenyl)-2,6-dimethyl-benzoyl]amino]butanoyl]amino]-10,13-dioxo-9,12-diazatricyclo[13.3.1.12,6]icosa-1(18),2(20),3,5,15(19),16-hexaene-8-carboxamide]	0.19 µM	0.031 µM
